Laboratory results from patent US20210378241A1, “COMBINATION COMPRISING A BENZAMIDE HERBICIDE AND A PYRIDINE CARBOXYLIC ACID HERBICIDE, AND A METHOD FOR MAKING AND USING THE COMBINATION” (Generic Crop Science LLC, priority 2020, published 2021).

Experiments:
[1] = test system: weeds in seedling alfalfa; experiment: Field trial in seedling alfalfa, Brawley, Calif.: percent weed control (burndown), 0 to 100% visual scale; format: in vivo; conditions: for Percent Weed Control (Burndown), mean: single application on seedling alfalfa, use rates of Table 5, 4 replicates; for Overall weed control (higher % control and lower weed densities), in words: all rating dates 6-34 DAA
Excerpt: (§1) The objective of this study was to evaluate the performance of PRONAMIDE and IMAZETHAPYR in commercial alfalfa hay production in Brawley, Calif. Trial treatments applied were as follows:
(§2) Treatments were applied on seedling alfalfa on March 14th at second to third trifoliate stage (3-4 inches tall). Treatment applications were made using a research CO2 backpack sprayer calibrated to deliver 50 gallons of solution per acre operating at 30 PSI. Weeds on the plots were on average 2-3 inches tall. Weather conditions during application were 34.3% RH, air and soil temperatures were 68° F. and 56.3° F. respectively, and soil moisture was dry.
(§3) Trial was rated at 6, 13, 20, 27 and 34 days after product application (DAA). On each rating date, Percent phytotoxicity and weed control based on a 0 to 100% visual scale, and weed density (number of weeds counted on 3 square yard quadrats) per plot were conducted.
(§4) Data was checked for normality assumptions and analyzed using a univariate Analysis of Variance, and the Least Significant Difference (LSD) mean separation test at a significance level of (α=0.1). Significant differences (p<0.1) were found for the dependent variables assessed at all rating dates (See ANOVA tables). Overall, treatments 5 (Raptor 4), 4 (PRONAMIDE and IMAZETHAPYR) and treatment 3 (WW2019-2) consistently provided the best control (higher % control and lower weed densities). Treatment efficacy as evidenced by % burndown (percent control was higher than 70% in all treatments 3-5) and weed counts (remained steady or declined up to this rating date) peaked at 27 DAA and subsequently declined (weed counts increased and percent control declined) at 34 DAA.

[2] = test system: weeds in seedling alfalfa; experiment: Field trial in seedling alfalfa, Brawley, Calif.: weed density (weeds counted on square yard quadrats); format: in vivo; conditions: use rates of Table 5
Excerpt: as §1, §2, §3, §4

smooth pigweed = conditions: 0.05 to 0.14 kg ai/ha, regardless of application method or herbicide rate; cited from earlier work
jimsonweed = conditions: 0.05 kg/ha; cited from earlier work
velvetleaf = conditions: 0.10 kg/ha, regardless of the application method; cited from earlier work

**Q.** Which “Percent Weed Control (Burndown), mean” value ([1]; 6 DA-A) does the source give for CCc1cnc(C2=NC(C)(C(C)C)C(=O)N2)c(C(=O)O)c1 (centres unmarked) [IMAZETHAPYR, 2-[4,5-dihydro-4-methyl-4-(1-methylethyl)-5-oxo-1H-imidazol-2-yl]-5-ethyl-3-pyridinecarboxylic acid] here?
**A.** 28%

**Q.** And the “Percent Weed Control (Burndown), mean” value ([1]; 13 DA-A)?
**A.** 33%

**Q.** What about the “Percent Weed Control (Burndown), mean” value ([1]; 20 DA-A) of the same molecule?
**A.** 75%

**Q.** And the “Percent Weed Control (Burndown), mean” value ([1]; 27 DA-A)?
**A.** 79%

**Q.** What about the “Percent Weed Control (Burndown), mean” value ([1]; 34 DA-A) of the same molecule?
**A.** 38%

**Q.** What about the “Overall weed control (higher % control and lower weed densities), in words” value ([1]; listed as Treatment 3) of the same molecule?
**A.** good weed control

**Q.** And the “Overall weed control (higher % control and lower weed densities), in words” value ([1]; listed as WW2019-2)?
**A.** best control

**Q.** And the “Weed Density, mean” value ([2]; 6 DA-A)?
**A.** 35 Weeds per yd^2

**Q.** What about the “Weed Density, mean” value ([2]; 13 DA-A) of the same molecule?
**A.** 25 Weeds per yd^2

**Q.** What about the “Weed Density, mean” value ([2]; 20 DA-A) of the same molecule?
**A.** 29 Weeds per yd^2

**Q.** And the “Weed Density, mean” value ([2]; 27 DA-A)?
**A.** 24 Weeds per yd^2

**Q.** What about the “Weed Density, mean” value ([2]; 34 DA-A) of the same molecule?
**A.** 39 Weeds per yd^2

**Q.** And the “Control of smooth pigweed” value (smooth pigweed)?
**A.** ≥ 90%

**Q.** And the “Control of jimsonweed, better postemergence compared to soil applications” value (jimsonweed)?
**A.** 30%

**Q.** What about the Control of velvetleaf (velvetleaf) of the same molecule?
**A.** ≥ 90%

**Q.** With C#CC(C)(C)NC(=O)c1cc(Cl)cc(Cl)c1 [PRONAMIDE, 3,5-dichloro-n-(1,1-dimethyl-2-propynyl) benzamide] as the molecule, how does the “Percent Weed Control (Burndown), mean” value ([1]; 6 DA-A) read?
**A.** 15%

**Q.** What about the “Percent Weed Control (Burndown), mean” value ([1]; 13 DA-A) of the same molecule?
**A.** 20%

**Q.** And the “Percent Weed Control (Burndown), mean” value ([1]; 20 DA-A)?
**A.** 38%

**Q.** What about the “Percent Weed Control (Burndown), mean” value ([1]; 27 DA-A) of the same molecule?
**A.** 25%

**Q.** What about the “Percent Weed Control (Burndown), mean” value ([1]; 34 DA-A) of the same molecule?
**A.** 8%

**Q.** What about the “Overall weed control (higher % control and lower weed densities), in words” value [1] of the same molecule?
**A.** less beneficial weed control

**Q.** What about the “Weed Density, mean” value ([2]; 6 DA-A) of the same molecule?
**A.** 51 Weeds per yd^2

**Q.** What about the “Weed Density, mean” value ([2]; 13 DA-A) of the same molecule?
**A.** 41 Weeds per yd^2

**Q.** And the “Weed Density, mean” value ([2]; 20 DA-A)?
**A.** 42 Weeds per yd^2

**Q.** And the “Weed Density, mean” value ([2]; 27 DA-A)?
**A.** 43 Weeds per yd^2

**Q.** And the “Weed Density, mean” value ([2]; 34 DA-A)?
**A.** 81 Weeds per yd^2
